Test results reported in the NIST ThermoML archive (doi:10.1016/j.tca.2009.02.022).

Columns and labels:
[1] = 303.15 K, 101.33 kPa, Liquid; for viscosity: Capillary tube (Ostwald / Ubbelohde) method; for mass density: Vibrating tube method
[2] = xn = mol fraction of the nth substance listed; settings: 303.15 K, 101 kPa, Liquid; for viscosity: Capillary tube (Ostwald / Ubbelohde) method; for mass density: Vibrating tube method

CCCCO [butan-1-ol]
[1]
Settings | mass density [kg/m3] | viscosity [mPa·s]
– | 801.9 | 2.25

C1CCCCC1 [cyclohexane]
[1]
Settings | mass density [kg/m3] | viscosity [mPa·s]
– | 769.12 | 0.821

CCOC(C)=O [ethyl acetate]
[1]
Settings | mass density [kg/m3] | viscosity [mPa·s]
– | 888.5 | 0.4

CCOC(C)=O [ethyl acetate] + CCCCO
[2]
Settings | mass density [kg/m3] | viscosity [mPa·s]
x2 = 0.1411 | 875.69 | 0.467
x2 = 0.3184 | 859.95 | 0.563
x2 = 0.3797 | 854.67 | 0.609
x2 = 0.4659 | 847.1 | 0.673
x2 = 0.5634 | 838.65 | 0.766
x2 = 0.6782 | 828.8 | 0.92
x2 = 0.7595 | 821.86 | 1.076
x2 = 0.8312 | 815.82 | 1.287
x2 = 0.9291 | 807.64 | 1.736

CCCCCCCCO [octan-1-ol]
[1]
Settings | mass density [kg/m3] | viscosity [mPa·s]
– | 817.52 | 6.19

CCCCCCCCO [octan-1-ol] + C1CCCCC1
[2]
Settings | mass density [kg/m3] | viscosity [mPa·s]
x1 = 0.2008 | 780.75 | 1.242
x1 = 0.3755 | 789.9 | 1.792
x1 = 0.5205 | 796.98 | 2.4
x1 = 0.6054 | 800.89 | 2.847
x1 = 0.7044 | 805.34 | 3.46
x1 = 0.7758 | 808.38 | 3.983
x1 = 0.8541 | 811.63 | 4.633
x1 = 0.901 | 813.56 | 5.089
x1 = 0.9553 | 815.75 | 5.664

CCCCCCCCO [octan-1-ol] + CCOC(C)=O
[2]
Settings | mass density [kg/m3] | viscosity [mPa·s]
x1 = 0.0809 | 878.16 | 0.537
x1 = 0.162 | 869.16 | 0.68
x1 = 0.3257 | 854.09 | 1.028
x1 = 0.4413 | 845.4 | 1.314
x1 = 0.5431 | 838.72 | 1.596
x1 = 0.6637 | 831.83 | 2.04
x1 = 0.7062 | 829.6 | 2.26
x1 = 0.8574 | 822.7 | 3.545
x1 = 0.9251 | 820.07 | 4.563

CCCCCO [pentan-1-ol]
[1]
Settings | mass density [kg/m3] | viscosity [mPa·s]
– | 807.11 | 2.839

CCCCCO [pentan-1-ol] + CCOC(C)=O
[2]
Settings | mass density [kg/m3] | viscosity [mPa·s]
x1 = 0.1095 | 877.42 | 0.474
x1 = 0.2164 | 867.46 | 0.541
x1 = 0.3291 | 857.43 | 0.626
x1 = 0.4303 | 848.83 | 0.722
x1 = 0.5202 | 841.5 | 0.829
x1 = 0.6103 | 834.44 | 0.97
x1 = 0.7187 | 826.3 | 1.211
x1 = 0.8051 | 820.09 | 1.508
x1 = 0.9009 | 813.46 | 2.017
